This experiment concerns CEM cells HIV-1 protection, formazan growth assay. The experiment in a line: NCI AIDS Antiviral Assay. To be noted: for pIC50: measured here: growth of uninfected CEM cells. Here is the method:
The ability of compounds to protect human CEM cells from HIV-1 infection is measured as a screen for new compounds capable of inhibiting the HIV virus. Five concentrations of drug were tested on uninfected and infected cells and cell growth was measured using a soluble formazan assay. […] Compounds that provided at least 50% protection were retested. Compounds that provided at least 50% protection on retest were listed as moderately active. Compounds that reproducibly provided 100% protection were listed as confirmed active. […] Note that the inability to provide protection could be due to toxicity.

SMILES strings stand for the structures. pEC50, pIC50: −log10 of the molar value. Activity calls are given as the source filed them.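 Rule for the calls: active = compounds giving half or more protection of infected cells from virus-caused growth loss, again on retest; inactive = the rest.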 *1 amine or outer side, *2 acyl side, *3 side chain or, on linkers, in order; H or OH if unused. Where a SMILES comes first, the peptide text is derived from it. Bridges are numbered along the chain shown (N, C = ends). Roman numbers before positions name the chains, in order. [ ]: non-standard residue; d: D form. Actinocin(9to1) = Cc1c2oc3c(C)ccc(C(=O)[*:1])c3nc-2c(C(=O)[*:2])c(N)c1=O; aThr = C[C@H](O)[C@H](N)C(=O)O; NMeV = CN[C@H](C(=O)O)C(C)C; Sar = CNCC(=O)O

By pEC50 is commonly meant −log10 of the EC50, conventionally taken in molar units. In general, pIC50 refers to the negative decadic logarithm of the IC50, by convention in mol/L. Regarding `O=C1CSC(=Nc2ccccc2)N1c1ccc(-n2c(-c3ccc(N=Cc4ccc(Cl)cc4)cc3)nc3ccccc3c2=O)cc1`, the pEC50 was under 4.25 and the negative logarithm of the IC50 (pIC50) is under 4.25.
For `c1ccc2c(c1)Sc1ccccc1C2=C1c2ccccc2Sc2ccccc21`, the pEC50 is under 3.70 and the negative logarithm of the IC50 (pIC50) was 4.97.
For `O=C(Nc1nc(C23CC4CC(CC(C4)C2)C3)cs1)c1cc2ccc(O)cc2oc1=O` the same measures were under 3.70 and 5.13.
Take `CCCCCN1CCN(c2ncccn2)CC1`: the pEC50 was under 3.70 and the negative logarithm of the IC50 (pIC50) is under 3.70.
As to `Cc1ccnc2sc3ccccc3c(=O)c12`, the pEC50 is under 3.70 and the pIC50 was 4.43.
Taken in the same sequence, the figures for `Cc1c(Cl)cccc1Nc1ncccc1C(=O)OCC(O)CO` (centres undefined) were under 3.70 and 4.04.
In the case of `O=c1c(-c2cccc(O)c2O)coc2cc(OC3OC(CO)C(O)C(O)C3O)ccc12` (centres undefined), the pEC50 is under 3.70 and the negative logarithm of the IC50 (pIC50) is under 3.70.
For the compound `COc1ccc(-n2c(C)nc3ccc(N=Cc4ccccc4)cc3c2=O)cc1`, the pEC50 is under 3.70 and the pIC50 was under 3.70.
`CC1=CCN(c2ccccn2)OC1c1ccccc1` (centres undefined): the pEC50 is under 4.13 and the negative-log IC50 (pIC50) was under 4.13.
Regarding `O=C(O)Cc1cccc2c1OC(c1ccccc1)C(Cl)(C(=O)c1ccccc1)C2=O` (centres undefined), the pEC50 was under 3.70 and the pIC50 was 5.26.
For `O=c1n(-c2ccccc2)c(=O)n2c(-c3ccccc3)c(-c3ccccc3)n12` the same measures were under 3.70 and 4.51.
With `Cc1c2oc3c(C)ccc(C(=O)N[C@@H]4C(=O)N[C@H](C(C)C)C(=O)N5CCC[C@H]5C(=O)N(C)CC(=O)N(C)[C@@H](C(C)C)C(=O)O[C@H]4C)c3nc-2c(C(=O)N[C@@H]2C(=O)N[C@H](C(C)C)C(=O)N3CCC[C@H]3C(=O)N(C)CC(=O)N(C)[C@@H](C(C)C)C(=O)O[C@H]2C)c(N)c1=O` (I: [aThr][dV]P[Sar][NMeV] / II: [aThr][dV]P[Sar][NMeV]; ester I:1-I:C, II:1-II:C; linker I:N-II:N via Actinocin(9to1)), the pEC50 is under 6.52 and the negative-log IC50 (pIC50) was 10.02.
As for `COc1ccc2c(C(=O)O)cc3cc(OC)c(OC)cc3c2c1`, the outcome was inactive.
Take `C1CSC2=C(S1)SC1=C(S2)SC(=C2SC3=C(SC4=C(SCCS4)S3)S2)S1`: the pEC50 was under 3.70 and the pIC50 is under 3.70.
With `NC(CS)=NC1CCCCC1`, the pEC50 was under 3.70 and the pIC50 was 3.97.
Regarding `CCCCCCCCCCCC(=O)OCCOCCOCCOCCOCCOC(=O)CCCCCCCCCCC`, the outcome was inactive.
Turning to `CC(C)COC(=O)c1ccc(N=Cc2ccc(C=Nc3ccc(C(=O)OCC(C)C)cc3)cc2)cc1`, the pEC50 is under 4.97 and the pIC50 is under 4.97.
For `C=CCCCC(C#N)(c1ccccc1)N(C)C` (centres undefined), the result was inactive.
`CCCCCCCSc1ccc(/C=C(\C#N)c2ccc(OCCN(CC)CC)cc2)cc1`: the pEC50 was under 4.00 and the pIC50 is 5.73.
For `CC1=CC(=O)N(n2c(Cc3ccccc3)n[nH]c2=O)C1=O`, the pEC50 was under 3.70 and the pIC50 is under 3.70.
Regarding `CC(=O)NC1=NC(=O)/C(=C\c2cccc(Cl)c2Cl)N1C`, the pEC50 was under 3.70 and the pIC50 was 4.09.
On to `COc1cc2oc(-c3ccc4c(c3)OCO4)c(OC)c(=O)c2c(OC)c1O`, for which the pEC50 was under 3.70 and the negative-log IC50 (pIC50) is under 3.70.
As for `O=C1C(c2ccc([N+](=O)[O-])cc2)=[N+]([O-])c2ccc([N+](=O)[O-])cc21`, the outcome was inactive.
Same read-out and setting: with `CCOC(=O)N1N=NC2C3OC(C[C@@]3(C#N)OC(C)=O)[C@H]21` (some centres undefined) the entry was “inactive”.
Take `CCCCCCCCCCCCCCCCCCCCCCNc1ccn(C2CC(OP(=O)(O)OCC3OC(n4cc(C)c(=O)[nH]c4=O)CC3N=[N+]=[N-])C(COP(=O)(O)OCC3CCC(n4ccc(N)nc4=O)O3)O2)c(=O)n1` (centres undefined): the pEC50 was 6.63 and the negative logarithm of the IC50 (pIC50) is 4.42.
Consider `CC1CCC23COC(=O)C2=CCCC3C1(C)CC/C(=C/CO)CO` (centres undefined), for which the result was inactive.
As for `CN1C(=O)C2C=C3CCCCC3=CC2N(C)C1=O` (centres undefined), the pEC50 was under 3.70 and the pIC50 was under 3.70.
For `O=C(/C=C/c1ccc[nH]1)c1ccccc1`, the pEC50 was under 3.46 and the pIC50 is 3.92.
In the case of `O=c1ccn(C2OC(COC3CCCCO3)C(OC3CCCCO3)C2OC2CCCCO2)c(=O)n1-c1ccccc1` (centres undefined), the pEC50 was under 3.70 and the negative logarithm of the IC50 (pIC50) was under 3.70.
On to `O=c1cc2c(n[nH]1)CCCC2`, for which the pEC50 was under 3.15 and the pIC50 is under 3.15.
As for `CCC(=O)NCC1(c2c[nH]c3ccccc23)SCCS1`, the outcome was inactive.
As for `Cc1ccc(S(=O)(=O)N/N=C2/CCC3(O)CC2(C)CCC2[C@H]3CC2(C)C)cc1` (some centres undefined), the pEC50 is under 3.70 and the pIC50 was 4.47.
Taken in the same sequence, the figures for `c1ccc2c(c1)Sc1ccccc1N2CCCN1c2ccccc2Sc2ccccc21` were under 4.30 and under 4.30.
For `CC(C)OC(=O)C1(C(C)C)CCc2ccc(C(=O)CCC(=O)O)cc21` (centres undefined), the pEC50 was under 3.70 and the negative-log IC50 (pIC50) was 3.75.
For `CCN(CC)CCCCC1CCN(CC(=O)N2c3ccccc3NC(=O)CC2C)CC1` (centres undefined) the same measures were under 3.60 and 4.41.
With `CC(=O)O/N=C(Cl)/C(Cl)=N/OC(C)=O`, the outcome was inactive.
As to `CC(=O)OC(CC1(C)C(C)CCC23COC(=O)C2=CCCC31)C1=CC(=O)OC1O` (centres undefined), the pEC50 is under 3.35 and the pIC50 is under 3.35.
Take `C/C(=N\NC(=O)C[N+](C)(C)C)c1sc(-c2cccnc2)nc1C`: the pEC50 is under 3.87 and the pIC50 is 4.14.
`Nc1ccc(CCCCc2ccc(S(=O)(=O)F)cc2Cl)c(Cl)c1`: the pEC50 was under 3.70 and the negative logarithm of the IC50 (pIC50) is 4.66.
With `CCOC(=O)/C(C#N)=C/c1[nH]c(C(=O)OCc2ccccc2)c(C)c1C`, the outcome was inactive.
Regarding `N#CN1CCC=C(c2cc3ccccc3[nH]2)C1`, the pEC50 is under 3.94 and the pIC50 is 4.22.
Turning to `O=C(Nc1cccc(C(=O)Nc2ccc(C3=NCCN3)cc2)c1)c1ccc(C2=NCCN2)cc1`, the pEC50 is 5.04 and the pIC50 was 3.81.
Taken in the same sequence, the figures for `CCCCCCO/N=C\c1c2c(O)c3c(O)c(C)c4c(c3c1O)C(=O)C(C)(O/C=C\C(OC)C(C)C(OC(C)=O)C(C)C(O)C(C)C(O)C(C)/C=C\C=C(\C)C(=O)N2)O4` (centres undefined) were under 3.70 and 5.27.
As for `C=C1CC(C)(COc2ccc3c(C)c(Cl)c(=O)oc3c2)OC1=O` (centres undefined), the pEC50 is under 5.70 and the pIC50 was 6.21.
Taken in the same sequence, the figures for `O=C1NC(N2CCCCC2)=N/C1=C\c1ccccc1O` were under 3.70 and 3.76.
In the case of `CN(C)CCONC(=O)C12CC3CC(CC(C3)C1)C2`, the result was inactive.
As to `O=C(/C=C/c1ccccc1)/C=C/c1ccccc1`, the outcome was inactive.
`O=[N+]([O-])c1c[c]([Sb](=[O])([OH])[OH])ccc1Cl` had a negative logarithm of the EC50 (pEC50) of under 3.70 and a pIC50 of under 3.70.
Turning to `CCOC(=O)C1=C(NNC(=O)Cc2ccccc2)CSC1=Nc1ccccc1`, the pEC50 is under 4.74 and the negative logarithm of the IC50 (pIC50) was under 4.74.
In the case of `COc1ccc2c(c1)C(=O)[C@@](Nc1ccc(C=O)cc1)(OC)[C@@](OC)(c1ccc([N+](=O)[O-])cc1)O2`, the pEC50 is under 3.70 and the pIC50 is 4.07.

The values are drawn from PubChem BioAssay AID179 (DTP/NCI, 2004).
